# Source: patent US20210163453A1, “DERIVATIVES OF PAPAVERINE THAT ARE EFFECTIVE HYPOXIC TUMOR RADIOSENSITIZERS” (Ohio State Innovation Foundation, priority 2018, published 2021)
# What was measured:
# A549 cells = assay: Seahorse OCR in A549 cells (dose response, IC50, washout); format: cell-based, Human
# EO771 tumors [1] = assay: Pimonidazole staining, hypoxic fraction of EO771 tumors; format: in vivo, mice
# Description: (§1) P values were calculated against thigh muscle with two-tailed two-sample t test. FIG. 3B-3C show normalized tissue oxygenation in EO771 (b) or A549 (c) tumor-bearing mice after injection of 2 mg/kg PPV or vehicle saline (readings taken every minute, and curve is average of 5 traces). P value was analyzed by linear mixed model with autoregressive correlation structure at T=30-40 minutes. […] Values are mean area covered by pimonidazole-positive cells evaluated from 20 images per animal+−SEM. P value was calculated with two-tailed two-sample t test. […] Curves represent mean tumor volumes+−SEM. P values were calculated against XRT with two-tailed two-sample t test.
# (§2) Bar graphs represent the mean area covered by pimonidazole-positive cells evaluated from 20 images per animal+−standard error of the mean. P value was calculated against control with two-tailed two-sample t test. […] Mean volumes+−SEM. P values were calculated against XRT with two-tailed two-sample t test. *P<0.05; **P<0.01; ***P<0.001; ****P<0.0001; n.s., not significant.
# Pimonidazole staining. […] […] […] The hypoxic fraction of each tumor was quantified by thresholding signal at 50% of the maximum signal on control sections. Area covered by pimonidazole-positive cells was evaluated from 20 images per animal and averaged. Error bars represent the standard deviation.
# EO771 tumors [2] = assay: Tumor growth delay of EO771 tumors with radiation (XRT); format: in vivo, mice; details: for effect of drug before radiation on tumor growth delay (words): orthotopic EO771, 2 mg/kg 30-40 minutes before 5 Gy; for enhancement of tumor growth delay over XRT alone: orthotopic EO771, 2 mg/kg before 5 Gy
# Description: as §1
# FIGS. 4A-4G show tumor growth before and after radiosensitization with PPV. FIG. 4A-4B show in vitro radiation survival assessment of A549 cell line treated with 10 μm PPV in normoxia (FIG. 4A) and anoxia (FIG. 4B). […] Values represent averaged colony counts+−standard deviation. […] Values are mean tumor volumes+−SEM. […] Values are mean tumor volumes+−SEM. FIG. 4E-4F show tumor growth delay. When tumors reached 4-fold volume increase, groups receiving no treatment or PPV only (FIG. 4E); and XRT only or PPV followed by XRT (FIG. 4F), tumor weights were compared. Values are mean tumor weights+−SEM (n=8). P values were calculated with two-tailed two-sample t test. FIG. 4G are related to FIG. 4E-4F tumor growth delay. Representative images of orthotopic EO771 tumors harvested on day 11 after treatment with XRT (top) or 2 mg/kg PPV followed by XRT (bottom). *P<0.05; **P<0.01; ***P<0.001; ****P<0.0001; n.s., not significant.
# as §2
# Tumor Growth kinetics. 2×10^6 EO771 or 5×10^6 A549 cells were injected s.c. into the flanks of 6-week old female immunocompetent C57/B6 (EO771) or immunocompromised nu/nu (A549) mice. Caliper measurements of opposing diameter were used to calculate the tumor volumes. Upon reaching […], the tumors were visualized by cone beam CT and treatment plans calculated using SARRP software. X-rays were delivered with a single beam delivering 5 Gy using the Small Animal Research Radiation Platform (SARRP, Xstrahl). Tumor volumes were measured until the post treatment volume increased 3-fold. Error bars represent standard deviation.
# Both models of transplanted tumors that were used for the oxygenation experiments of papaverine's effect on radiation response in vivo were investigated. The murine breast cancer line EO771 that is syngeneic with the BL6 strain of mice was used and transplanted it orthotopically into the mammary fat pad of immune-competent mice. Also used was the human A549 lung adenocarcinoma line that was transplanted into the flank of immune-deficient mice. The breast cancers grew to approximately 150 mm^3 and were then randomized to receive either no treatment, a single dose of either 5 Gy, or papaverine at 2 mg/kg followed 30-40 minutes later by 5 Gy.
# [3] = test system: NDUFV1 KO NDI1 flank tumors; assay: Pimonidazole staining, NDUFV1 KO NDI1 flank tumors; format: in vivo, mice; details: 2 mg/kg PPV
# Description: FIGS. 5A-5E show papaverine radiosensitizes through complex I inhibition. […] Values represent mean viable cells+−SD. […] Values are mean+−SD. […] P value was calculated with two-tailed two-sample t test. […] Curves represent mean tumor volumes+−SEM.
# Pimonidazole staining. Pimonidazole adducts were visualized in hypoxic regions within histological sections of tumor tissues (Kizaka-Kondoh, S. et al. Cancer science 100, 1366-1373 (2009)). Immune-deficient mice bearing EO771 and A549 flank xenografts were treated with 2 mg/kg PPV or saline and 60 mg/kg pimonidazole administered I.P. at 30 minutes and tumors harvested at 90 minutes. Tumor sections were stained with anti-pimonidazole rabbit antisera and anti-rabbit Alexa Fluor 488 secondary antibody. The hypoxic fraction of each tumor was quantified by thresholding signal at 50% of the maximum signal on control sections. Area covered by pimonidazole-positive cells was evaluated from 20 images per animal and averaged. Error bars represent the standard deviation.
# MP2 ODDluc tumors = assay: ODD-luciferase in vivo oxygen reporter (bioluminescence imaging); design: species or system mice; details: MP2 ODDluc tumors, 2 and 6 hours after drug
# Source text: FIGS. 14A-14E summarize results obtained using ODD-luciferase as an in vivo oxygen reporter. […] (n=3-4, P<0.05).
# Use of ODD-luciferase as an in vivo oxygen reporter. We have fused the oxygen dependent degradation domain (ODD) of the HIF1a protein to the luciferase reporter protein. This fusion protein is expressed in tumor cells and is stable and reports well in hypoxia, but is destroyed by cellular machinery when cells are well oxygenated (FIG. 14A). These cells were used to grow tumors in immune-deficient mice and the animals were exposed either 95% oxygen/5% CO2 (carbogen) or medical air and the tumor bioluminescence imaged by IVIS 30 minutes post injection. Increasing oxygen breathing decreases reporter signal (FIG. 14B). These animals were then treated with either papaverine or vehicle (FIG. 14C) or SMV32 or vehicle (FIG. 14E).
SMILES,"time for OCR to return to baseline after drug removal (washout) (A549 cells; 10 μM PPV, media replaced)","dose needed relative to rotenone for similar OCR inhibition (A549 cells; dose response analysis, A549)","decrease in the hypoxic fraction of tumors (EO771 tumors [1]; 2 mg/kg PPV for one hour, pimonidazole)",effect of drug before radiation on tumor growth delay (words) (EO771 tumors [2]),effect of drug before radiation on tumor growth delay (words) (EO771 tumors [2]; listed as papaverine),enhancement of tumor growth delay over XRT alone (EO771 tumors [2]),enhancement of tumor growth delay over XRT alone (EO771 tumors [2]; listed as papaverine),"effect of single dose of drug alone on tumor growth (EO771 tumors [2]; orthotopic EO771, 2 mg/kg, no XRT)",hypoxic fraction by pimonidazole [3],ODD-luciferase reporter signal (MP2 ODDluc tumors),"IC50 (A549 cells; Homo sapiens, A549 cells by Seahorse, n=5 replicates, read-out: mitochondrial IC50 (OCR IC50))","tumor hypoxia by pimonidazole staining (EO771 tumors [1]; orthotopic EO771, immune-competent mice, 2 mg per kg)","growth delay compared to radiation alone (EO771 tumors [2]; heterotopic EO771 flank tumors, nude mice, 2 mg/kg 35 minutes prior to 5 Gy)"
"COc1ccc(Cc2nccc3cc(OC)c(OC)cc23)cc1OC [PPV, papaverine]",less than one and one,100 × higher dose than rotenone,72%,significantly adds to tumor growth delay,significantly enhanced the antitumor effects of the radiation,2-4 fold,1.9-2.8 fold,no significant effect,no decrease of the hypoxic fraction,significant decrease in signal,,,
COc1cc2ccnc(Cc3cccc4ccccc34)c2cc1OC [SMV-32],,,,,,,,,,significant decrease in signal,7.4 µM,decreased tumor hypoxia,activity that is comparable to papaverine
